{"source": "paper PMC9465641", "about": "(Frontiers in Pharmacology, 2022)", "key": {"[1]": {"test": "Population pharmacokinetic modeling of intravenous colistin sulfate (plasma LC-MS/MS, Phoenix NLME)", "type": "in vivo, human", "description": "This study was conducted at the Third Xiangya Hospital of Central South University between May 2021 and April 2022. The design of this research fully conformed to the principles of the Helsinki Accords, and the study protocol was approved by the Research Ethics Committee of the Third Xiangya Hospital of Central South University (No: 2021-S396). Written informed consent was obtained from all patients or their legal representatives.\nColistin sulfate treatment was at the discretion of their medical teams. […] Colistin sulfate was routinely subjected to therapeutic drug monitoring (TDM) in our hospital. […] Other blood samples were collected randomly from residual blood of blood gas analysis or routine blood tests. In addition, urine samples from 6 patients with catheters in the intensive care unit were collected and recorded across a dosage interval (0–12 h after dosing) after 72 h of therapy. All samples were centrifuged for 10 min (4,000 ×g), and the supernatant was immediately collected and stored at −80°C pending analysis.\nColistin A and colistin B in plasma and urinary samples were quantified using a validated ultraperformance liquid chromatography tandem mass spectrometry (LC-MS/MS) assay. Briefly, samples were pretreated with acetonitrile, and 1 μL supernatant was injected into the LC-MS/MS instrument for analysis. A Waters XBridge BEH HILIC (4.6 × 150 mm, 2.5 μm) column was used. The mobile phase, consisting of eluents A (0.1% formic acid in water, vol/vol) and B (methanol), was delivered at a flow of 0.5 ml/min. Analysis of independently prepared quality control samples indicated good reproducibility (coefficients of variation ≤12.57%), and accuracy ranged from 88.52% to 109.43%. The limit of quantification was 0.034 mg/L for colistin A and 0.059 mg/L for colistin B. Since colistin A and B had similar structures, molecular weights and pharmacokinetic characteristics, the concentrations of colistin A and B were added together and referred to as colistin ([Li et al., 2003]; [Couet et al., 2011]).\nPopulation PK analysis was performed using a non-linear mixed-effect modeling with the Phoenix® NLME software (version 8.3.4, Certara L.P. United States). The first-order conditional estimation-extended least-squares (FOCE-ELS) method was used to develop the PPK model. One- and two-compartment models with linear elimination were compared based on Akaike information criteria (AIC) and Bayesian information criterion (BIC). The inter-individual variability of PK parameters was assumed to follow a log-normal distribution and described using an exponential model, and residual variability was described by an additive, proportional, or combined error model. The coefficient of variation (CV%), goodness-of-fit plots, and the likelihood ratio test (-2 loglikelihood; -2LL) were used to evaluate the model.\nThen, a stepwise covariate modeling (SCM) method was used to explore candidate covariates on PK parameters, including age, sex, weight, ALT, AST, TBIL, DBIL, TBA, TP, ALB, UA, BUN, CrCL, WBC, NEUT, HGB, RBC, HCT, PLT, PT, TT, APTT, PA, FIB, CRP, PCT, LAC, and 24-h urine volume, where continuous covariates (e.g., age) were modeled by using the power function and categorical covariates (e.g., sex) were described by an exponential function. By comparing with the base model, a drop in objective function value (OFV) > 3.84 (p < 0.05, df = 1) during forward selection steps and an increase of OFV >6.63 (p < 0.01, df = 1) in backward elimination steps were the inclusion criteria for covariates.\nFinally, the reliability of the final model was evaluated by goodness-of-fit plots. Additionally, the performance of the final model was assessed by a prediction-corrected visual predictive check (pcVPC) of 1,000 replicates using Monte Carlo simulations, and a bootstrap analysis with 1,000 samples was conducted to evaluate the model stability."}, "[2]": {"tested_on": "A. baumannii", "test": "MIC for colistin of causative pathogen", "type": "cell-based", "conditions": "AB"}, "[3]": {"set-up": "method as in Al-Khayyat and Aronson, 1973", "conditions": "dogs; ref Al-Khayyat and Aronson, 1973; cited from earlier work"}, "[4]": {"set-up": "method as in Couet et al., 2011", "conditions": "colistin converted from CMS; ref Couet et al., 2011; cited from earlier work"}, "[5]": {"conditions": "used for fAUC/MIC; ref Nation et al., 2016; cited from earlier work", "description": "The AUC for each dosing regimen was calculated at 24 or 72 h after therapy to evaluate the probability of target attainment (PTA) of fAUC/MIC ≥20 ([Dudhani et al., 2010a]; [Cheah et al., 2015]), where f is the unbound fraction of colistin defined as 0.49 ([Nation et al., 2016]). Dosing regimens were considered appropriate if PTA ≥90% was achieved. In addition, the average steady-state plasma colistin concentration (Css,avg) was used to evaluate the probabilities of efficacy and toxicity, and the desired Css, avg were designed to achieve target attainment rates of >80% for Css,avg ≥ 2 and <30% ..."}}, "note": "Where a name gives a salt, the structure may show the parent alone. Positions of bridges follow the written chain, without caps; N, C: chain ends. Non-standard residues stand in square brackets, D forms with d. Residues, ends and D or L forms follow the SMILES beside them. *: point of attachment. X1 = CC[C@H](C)CCCCC(=O)*; Dab = NCC[C@H](N)C(=O)O"}
{"compound": "CC[C@H](C)CCCCC(=O)N[C@@H](CCN)C(=O)N[C@H](C(=O)N[C@@H](CCN)C(=O)N[C@H]1CCNC(=O)[C@H]([C@@H](C)O)NC(=O)[C@H](CCN)NC(=O)[C@H](CCN)NC(=O)[C@H](CC(C)C)NC(=O)[C@@H](CC(C)C)NC(=O)[C@H](CCN)NC1=O)[C@@H](C)O", "note": "[colistin sulfate] (X1-[Dab]T[Dab][Dab][Dab][dL]L[Dab][Dab]T; lactam 4-C)", "values": [{"measurement": "dV2dALT, exponential parameter coefficient of ALT to V2, final model estimate", "setting": "[1]; PPK model, n = 20", "result": 0.635}, {"measurement": "dCLdCrCL, bootstrap median", "setting": "[1]; bootstrap with 1,000 samples", "result": 0.373}, {"measurement": "dV2dALT, bootstrap median", "setting": "[1]; bootstrap with 1,000 samples", "result": 0.633}, {"measurement": "tvCL2, bootstrap median", "setting": "[1]; bootstrap with 1,000 samples", "result": 1.78, "unit": "L/h"}, {"measurement": "tvCL, bootstrap median", "setting": "[1]; bootstrap with 1,000 samples", "result": 1.46, "unit": "L/h"}, {"measurement": "tvV2, bootstrap median", "setting": "[1]; bootstrap with 1,000 samples", "result": 53.8, "unit": "L"}, {"measurement": "tvV, bootstrap median", "setting": "[1]; bootstrap with 1,000 samples", "result": 16.2, "unit": "L"}, {"measurement": "tvV, typical value of volume of central compartment distribution (V), final model estimate", "setting": "[1]; critically ill patients, iv, n = 20, 98 plasma concentrations, two-compartment PPK model", "result": 16.1, "unit": "L"}, {"measurement": "tvCL2, typical value of inter-compartmental clearance (CL2), final model estimate", "setting": "[1]; critically ill patients, iv, n = 20, two-compartment PPK model", "result": 1.71, "unit": "L/h"}, {"measurement": "tvV2, typical value of volume of peripheral compartment distribution (V2), final model estimate", "setting": "[1]; critically ill patients, iv, n = 20, two-compartment PPK model, at ALT 37", "result": 50.5, "unit": "L"}, {"measurement": "tvCL, typical value of central compartment clearance (CL), final model estimate", "setting": "[1]; critically ill patients, iv, n = 20, two-compartment PPK model, at CrCL 57.5", "result": 1.50, "unit": "L/h"}, {"measurement": "CL, median", "setting": "[1]; six patients with urine samples, median", "result": 1.519, "unit": "L/h"}, {"measurement": "MIC", "setting": "[2]; isolate of patient 8", "result": 2, "unit": "µg/mL"}, {"measurement": "MIC", "setting": "[2]; isolate of patient 18", "result": 0.5, "unit": "µg/mL"}, {"measurement": "MIC", "setting": "[2]; isolate of patient 19", "result": 0.5, "unit": "µg/mL"}, {"measurement": "dose recovered from urine", "setting": "[3]", "result": "0.13 ± 0.09", "unit": "%"}, {"measurement": "CL", "setting": "[4]", "result": 2.92, "unit": "L/h"}, {"measurement": "unbound fraction (f)", "setting": "[5]", "result": 0.49}]}
